According to paper PMC7051184, “C9orf72 arginine-rich dipeptide repeat proteins disrupt karyopherin-mediated nuclear import” (eLife, 2020):
Where a SMILES comes first, the peptide text is derived from it. Where no end group is shown, it is not given here.

Key:
[1] = test system: proteasome; conditions: ref Gupta et al., 2017; cited from earlier work
Source text: Throughout this study, we observed marked differences in the behavior of GR and PR. […] Based on their divergent molecular properties, the differing behavior of GR and PR is not surprising. On one hand, bot ...

[2] = test system: nuclear transport of NLS-NES shuttle proteins; conditions: synthetic peptide added to HeLa cells in the culture media; ref Vanneste et al., 2019; cited from earlier work
Source text: (§1) Additional studies have since investigated mechanisms by which individual DPRs may disrupt the nuclear transport apparatus. […] PR20 was previously shown by STE ...

[3] = test system: nuclear import of NLS-BSA; conditions: permeabilized HeLa cells; ref Shi et al., 2017; cited from earlier work
Source text: as §1

[4] = test system: Nup54 and 98 FG-domain polymers; conditions: ref Shi et al., 2017; cited from earlier work
Source text: The rate of passive transport through the NPC is governed by the FG-Nup barrier ([Mohr et al., 2009]; [Timney et al., 2016]; [Frey et al., 2018]), in addition to local concentrations of importin β and RanGTP ([Ma et al., 2012]; [Kapinos et al., 2017]). R-DPR/FG-domain interactions are predicted based on the propensity of arginines to undergo cation-pi interactions with aromatic phenylalanine rings (reviewed by [Gallivan and Dougherty, 1999]; [Banani et al., 2017]). Indeed, previous interactome studies predicted R-DPR interactions with FG-Nups including Nup54, 62, 98, 153, and 214 ([Lin et al., ...

[5] = target: T1, importin β-mediated nuclear import of Rango (Homo sapiens, UniProt Q14974); experiment: Permeabilized cell nuclear import assay, Rango, mouse primary cortical neurons; type: cell-based; conditions: importin β small molecule inhibitor control
T1 sequence (Q14974 whole entry): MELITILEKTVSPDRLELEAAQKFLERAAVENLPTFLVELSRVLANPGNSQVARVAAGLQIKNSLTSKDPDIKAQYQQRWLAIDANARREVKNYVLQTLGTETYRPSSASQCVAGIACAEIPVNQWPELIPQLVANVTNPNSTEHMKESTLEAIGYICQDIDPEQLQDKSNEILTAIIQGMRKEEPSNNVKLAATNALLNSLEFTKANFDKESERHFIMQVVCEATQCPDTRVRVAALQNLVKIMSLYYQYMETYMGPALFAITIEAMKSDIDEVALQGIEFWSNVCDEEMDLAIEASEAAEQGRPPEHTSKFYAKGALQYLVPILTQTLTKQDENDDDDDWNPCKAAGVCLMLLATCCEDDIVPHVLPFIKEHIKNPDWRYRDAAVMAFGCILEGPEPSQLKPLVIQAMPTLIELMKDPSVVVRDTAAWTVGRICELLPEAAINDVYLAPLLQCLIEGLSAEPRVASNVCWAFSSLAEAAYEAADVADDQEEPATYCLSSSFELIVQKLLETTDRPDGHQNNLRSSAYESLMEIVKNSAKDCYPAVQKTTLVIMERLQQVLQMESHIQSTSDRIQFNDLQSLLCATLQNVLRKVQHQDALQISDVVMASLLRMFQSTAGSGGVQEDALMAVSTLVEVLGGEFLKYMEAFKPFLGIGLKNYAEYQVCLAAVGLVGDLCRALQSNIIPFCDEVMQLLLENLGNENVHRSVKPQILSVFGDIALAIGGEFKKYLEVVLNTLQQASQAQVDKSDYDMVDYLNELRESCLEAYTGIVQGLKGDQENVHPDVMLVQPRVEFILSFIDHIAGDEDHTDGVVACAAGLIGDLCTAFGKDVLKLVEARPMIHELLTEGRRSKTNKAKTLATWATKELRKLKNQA
Source text: All animal procedures were approved by the Johns Hopkins Animal Care and Use Committee. Timed pregnant C57BL/6J females (Jackson Laboratory, Bar Harbor, ME) were sacrificed by cervical dislocation at E16, cortex dissociated, and cells plated at 50,000/well on poly-D-lysine/laminin-coated, optical glass-bottom 96-well plates. Growth medium consisted of Neurobasal supplemented with B27, Glutamax, and penicillin/streptomycin (Gibco/ThermoFisher). At 5–7 days in vitro, neurons were rinsed in prewarmed PBS and permeabilized for 4 min. at 37° in a hypotonic solution containing […] Tris-HCl pH 7.5 (to cause osmotic swelling) and 50–150 mg/ml BSA (for molecular crowding/mechanical support). Following permeabilization, cells were placed on ice and rinsed 2 × 5 min in transport buffer (TRB, 20 mM HEPES, 110 mM KOAc, 2 mM Mg(OAc)2, 5 mM NaOAc, 0.5 mM EGTA, 250 mM sucrose, pH 7.3, with protease inhibitor cocktail). All rinse and assay buffers were supplemented with 50 mg/mL BSA. The optimal hypotonic buffer and BSA concentration varied by batch, and was optimized prior to each set of assays for ability to permeabilize the majority of plasma membranes while maintaining nuclear exclusion of a 70 kD fluorescent dextran (ThermoFisher).
Concentrated whole cell lysates were prepared from HEK293T cells (ATCC, mycoplasma negative and validated by STR profiling), grown in 150 mm dishes and sonicated on ice in 1X TRB in the presence of protease inhibitor cocktail (Roche). The lysates were clarified (15 min, 14000 g, 4C), snap frozen in liquid nitrogen, and stored in single use aliquots at −80C. Total HEK cell RNA was extracted using miRNEasy kits according to the manufacturers’ protocol, with DNase digestion (Qiagen). RNA concentration was measured by Nanodrop (ThermoFisher), and all 260/280 ratios were verified to be > 2.0. Energy regeneration (ER) mix consisted of 100 µM ATP, 100 µM GTP, 4 mM creatine phosphate, and 20 U/mL creatine kinase (Roche).
(§2) Reaction mixes consisting of 2.5 mg/ml lysate, ER, fluorescent cargo (200 nM Rango and YFP-M9-CFP, 500 nM GST-GFP-NLS), Hoechst, DPRs, RNA, or inhibitors (100 µM importazole (IPZ, Millipore Sigma); 0.8 mg/mL wheat germ agglutinin (WGA, Millipore Sigma) were assembled on ice during cell permeabilization. DPRs or inhibitors were allowed to equilibrate in cell lysate for at least 30 min prior to initiation of transport. Every plate included: (1) Cargo alone: fluorescent cargo, but no ER or lysate, (2) Untreated controls: fluorescent cargo, ER, and lysate, and (3) Inhibitor: fluorescent cargo, ER, lysate, and IPZ (Rango and GST-GFP-NLS reactions) or WGA (YFP-M9-CFP). Preassembled transport reactions were then transferred onto permeabilized cells via multichannel pipette, and allowed to proceed at room temperature for 2 hr (Rango, YFP-M9-CFP) or 4 hr (GST-GFP-NLS). Cells were fixed in 4% paraformaldehyde/PBS, rinsed 2x with PBS, and transferred to 50% glycerol/PBS for immediate imaging.
For a subset of neuron transport assays, transport was monitored live via time lapse imaging every 5 min for 30 min. In a subset of HeLa assays, transport reactions were centrifuged before use at 14,000g × 15 min to separate soluble and insoluble fractions. In another variation, the transport lysate + DPR and ER mix was allowed to preincubate on the permeabilized HeLa cells for 1 hour prior to initiation of transport, rinsed 1x with TRB, and transport initiated with fresh lysate, cargo, and ER.
Multiple non-overlapping fields per well (4 for time-lapse imaging, 9-16 for fixed imaging), were captured at 40x on an ImageXpress Micro XLS high-content microscope (Molecular Devices, San Jose, CA), and the ratio of nuclear to cytoplasmic fluorescence intensity was calculated using the MetaXpress automated translocation-enhanced module. Raw data were filtered to exclude autofluorescence and the mean N/C ratio from wells without ER or cell lysate was subtracted from all values.

[6] = target: T1, importin β-mediated nuclear import of Rango; experiment: Fractionated Rango transport assay (aggregates present or supernatant only), HeLa; type: cell-based; conditions: with AF647-labeled importin β
Protocol: A single cell-derived clone of HeLa cells (ATCC, Manassas, VA; mycoplasma negative and validated by STR profiling) were maintained in OptiMEM (Gibco/ThermoFisher) with 4% FBS and plated on uncoated optical glass-bottom 96 well plates, at appropriate densities to reach 70–90% confluence on the day of the transport assay. To permeabilize, cells were rinsed for 2 min in ice-cold PBS, and permeabilized on ice for 10 min in 15–30 µg/mL digitonin (Calbiochem, San Diego, CA) in permeabilization buffer (PRB, 20 mM HEPES, 110 mM KOAc, 5 mM Mg(OAc)2, 0.5 mM EGTA, 250 mM sucrose, pH 7.5, with protease inhibitor cocktail). Following permeabilization, cells were placed on ice and rinsed 3 × 5 min in transport buffer (TRB, 20 mM HEPES, 110 mM KOAc, 2 mM Mg(OAc)2, 5 mM NaOAc, 0.5 mM EGTA, 250 mM sucrose, pH 7.3, with protease inhibitor cocktail). The optimal digitonin concentration varied by cell density and passage number, and was optimized prior to each set of assays for the ability to permeabilize the majority of plasma membranes while maintaining nuclear exclusion of a 70 kD fluorescent dextran (ThermoFisher).
as §2
For a subset of neuron transport assays, transport was monitored live via time lapse imaging every 5 min for 30 min. […]
Multiple non-overlapping fields per well (4 for time-lapse imaging, 9-16 for fixed imaging), were captured at 40x on an ImageXpress Micro XLS high-content microscope (Molecular Devices, San Jose, CA), and the ratio of nuclear to cytoplasmic fluorescence intensity was calculated using the MetaXpress automated translocation-enhanced module. […] Resulting N/C ratios were expressed as % untreated, to permit comparisons across biological replicates.

[7] = target: T1, importin β-mediated nuclear import of Rango; experiment: Permeabilized cell nuclear import assay, Rango, HeLa; type: cell-based

For `N=C(N)NCCC[C@H](NC(=O)[C@@H]1CCCN1C(=O)[C@H](CCCNC(=N)N)NC(=O)[C@@H]1CCCN1C(=O)[C@H](CCCNC(=N)N)NC(=O)[C@@H]1CCCN1C(=O)[C@H](CCCNC(=N)N)NC(=O)[C@@H]1CCCN1C(=O)[C@H](CCCNC(=N)N)NC(=O)[C@@H]1CCCN1C(=O)[C@H](CCCNC(=N)N)NC(=O)[C@@H]1CCCN1C(=O)[C@H](CCCNC(=N)N)NC(=O)[C@@H]1CCCN1C(=O)[C@H](CCCNC(=N)N)NC(=O)[C@@H]1CCCN1C(=O)[C@H](CCCNC(=N)N)NC(=O)[C@@H]1CCCN1C(=O)[C@H](CCCNC(=N)N)NC(=O)[C@@H]1CCCN1C(=O)[C@H](CCCNC(=N)N)NC(=O)[C@@H]1CCCN1C(=O)[C@H](CCCNC(=N)N)NC(=O)[C@@H]1CCCN1C(=O)[C@H](CCCNC(=N)N)NC(=O)[C@@H]1CCCN1C(=O)[C@H](CCCNC(=N)N)NC(=O)[C@@H]1CCCN1C(=O)[C@H](CCCNC(=N)N)NC(=O)[C@@H]1CCCN1C(=O)[C@H](CCCNC(=N)N)NC(=O)[C@@H]1CCCN1C(=O)[C@H](CCCNC(=N)N)NC(=O)[C@@H]1CCCN1C(=O)[C@H](CCCNC(=N)N)NC(=O)[C@@H]1CCCN1C(=O)[C@H](CCCNC(=N)N)NC(=O)[C@@H]1CCCN1C(=O)[C@H](CCCNC(=N)N)NC(=O)[C@@H]1CCCN1)C(=O)O` [PR20] (H-PRPRPRPRPRPRPRPRPRPRPRPRPRPRPRPRPRPRPRPR-OH; N-terminus and C-terminus assumed), the “Inhibition of proteosomal degradation” value [1] is listed as “shown to inhibit proteosomal degradation”, the “Effect on nuclear transport of fluorescent NLS-NES shuttle proteins” value [2] is listed as “unable to impede nuclear transport” and the “Effect on nuclear import of NLS-BSA” value [3] is listed as “impeded nuclear import of NLS-BSA”. For the same compound, the “Binding to FG-domain polymers” value [4] was “bind and stabilize Nup54 and 98 FG-domain polymers”.

In the case of `CC(Nc1nc(N2CCCC2)nc2ccccc12)c1ccccc1` (stereo not shown) [importazole, Importazole, reference compound], the “Effect on Rango import in permeabilized neurons” value [5] is reported as “can be inhibited”.

For “AF488-PR10: PR10 labeled with Alexa Fluor 488 C5-maleimide (PRPRPRPRPRPRPRPRPRPRKC(Alexa Fluor 488 C5‑maleimide))”, the “Location of AF488-labeled DPR in fractionated transport reactions (confocal)” value [6] was “remained in the supernatant and was present at the nuclear envelope”.

For `N=C(N)NCCC[C@H](NC(=O)CNC(=O)[C@H](CCCNC(=N)N)NC(=O)CNC(=O)[C@H](CCCNC(=N)N)NC(=O)CNC(=O)[C@H](CCCNC(=N)N)NC(=O)CNC(=O)[C@H](CCCNC(=N)N)NC(=O)CNC(=O)[C@H](CCCNC(=N)N)NC(=O)CNC(=O)[C@H](CCCNC(=N)N)NC(=O)CNC(=O)[C@H](CCCNC(=N)N)NC(=O)CNC(=O)[C@H](CCCNC(=N)N)NC(=O)CNC(=O)[C@H](CCCNC(=N)N)NC(=O)CNC(=O)[C@H](CCCNC(=N)N)NC(=O)CNC(=O)[C@H](CCCNC(=N)N)NC(=O)CNC(=O)[C@H](CCCNC(=N)N)NC(=O)CNC(=O)[C@H](CCCNC(=N)N)NC(=O)CNC(=O)[C@H](CCCNC(=N)N)NC(=O)CNC(=O)[C@H](CCCNC(=N)N)NC(=O)CNC(=O)[C@H](CCCNC(=N)N)NC(=O)CNC(=O)[C@H](CCCNC(=N)N)NC(=O)CNC(=O)[C@H](CCCNC(=N)N)NC(=O)CNC(=O)[C@H](CCCNC(=N)N)NC(=O)CN)C(=O)O` [GR20], the “Effect on nuclear transport of fluorescent NLS-NES shuttle proteins” value [2] is given as “unable to impede nuclear transport”.

With `OCCCCCCO` [1,6-hexanediol] the “Reversal of mild nuclear import inhibition” value ([7]; 25 µM PR10) was “neither 1,6-hexanediol nor exogenous importin β could reverse mild nuclear import inhibition” and the “Effect on Rango import at baseline” value ([7]; no DPR) was “caused dose-dependent inhibition at baseline”.

For “AF488-GR10: GR10 labeled with Alexa Fluor 488 C5-maleimide (GRGRGRGRGRGRGRGRGRGRKC(Alexa Fluor 488 C5‑maleimide))”, the “Location of AF488-labeled DPR in fractionated transport reactions (confocal)” value [6] was “fully sedimented into the pellet”.
